This is an account of results in publication PMC8165160, “Substrate Specificities and Inhibition Pattern of the Solute Carrier Family 10 Members NTCP, ASBT and SOAT” (Frontiers in Molecular Biosciences, 2021).

Counter-ions that a name gives are not always drawn. Like-named read-outs stand apart in the source and are kept apart here.

In test [1] the target is T1, SOAT (Homo sapiens, UniProt Q3KNW5).
T1 construct: The full-length open reading frames of NTCP, ASBT, and SOAT were cloned; expressed in transfected cells; host or cells: Flp-In T-REX HEK293 (SOAT-HEK293), tetracycline-induced
T1 sequence (Q3KNW5 1-377): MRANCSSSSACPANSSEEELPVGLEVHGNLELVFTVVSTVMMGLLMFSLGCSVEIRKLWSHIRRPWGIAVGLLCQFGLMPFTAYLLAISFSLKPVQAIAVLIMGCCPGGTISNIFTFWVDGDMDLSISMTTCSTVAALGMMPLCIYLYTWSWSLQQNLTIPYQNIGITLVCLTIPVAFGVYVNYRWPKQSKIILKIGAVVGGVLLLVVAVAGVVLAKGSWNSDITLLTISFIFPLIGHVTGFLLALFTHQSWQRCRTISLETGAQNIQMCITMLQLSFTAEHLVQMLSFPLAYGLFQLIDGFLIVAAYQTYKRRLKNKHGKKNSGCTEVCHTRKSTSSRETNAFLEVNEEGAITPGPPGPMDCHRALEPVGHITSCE
Also noted: method as in Geyer et al. (2007). The conditions noted are these: uptake via SOAT, same SOAT-HEK293 cell line; ref Geyer et al. (2007); cited from earlier work.

Test [2] has as its target T1, SOAT. The test can be described thus: Transport kinetics (concentration-dependent uptake) in SOAT-HEK293 cells. The class given is cell-based. The note with it: uptake via SOAT, 1 min, 37°C. The procedure: Cells were washed three times with phosphate buffered saline (PBS) (137 mM NaCl, 2.7 mM KCl, 1.5 mM KH2PO4, 7.3 mM Na2HPO4, pH 7.4, 37°C). Afterward, cells were preincubated at 37°C with sodium transport buffer (containing 142.9 mM NaCl, 4.7 mM KCl, 1.2 mM MgSO4, 1.2 mM KH2PO4, 1.8 mM CaCl2, and 20 mM HEPES (all chemicals from Sigma-Aldrich), adjusted to pH 7.4), or with choline transport buffer (equimolar substitution of sodium chloride with choline chloride). Uptake experiments were initiated by replacing the preincubation buffer by 500 μL transport buffer containing the radiolabeled test compound and were performed at 37°C. Transport was terminated by removing the transport buffer and washing five-times with ice-cold PBS. Cell monolayers were lysed in 1 N NaOH with 0.1% SDS and the cell-associated radioactivity was determined by liquid scintillation counting. Protein content of individual wells was determined by Lowry assay as reported before ([Geyer et al., 2007]).
FIGURE 2 NTCP, ASBT, and SOAT transport kinetics. Concentration-dependent uptake was analyzed in NTCP-HEK293, ASBT-HEK293, and SOAT-HEK293 cells for the indicated substrates at increasing substrate concentrations. […] Uptake was analyzed for 1 min at 37°C. Afterward, the medium was removed and each cell monolayer was washed and processed to determine the protein content and cell-associated radioactivity. […]

The subject of another test is HDV. The note with it: NTCP expressing HepG2 hepatoma cells, trans-inhibitory effect; ref Lowjaga et al., 2021; cited from earlier work.

As for `C[C@]12CC[C@H](OS(=O)(=O)O)CC1=CC[C@@H]1[C@@H]2CC[C@]2(C)C(=O)CC[C@@H]12` [DHEAS, Dehydroepiandrosterone sulfate], at SOAT [1], the “Apparent K m” value is reported as 28.7 ± 3.9 µM and the V max is 1899 ± 81 pmol/mg protein/min.
For the molecule `C[C@H](CCC(=O)NCCS(=O)(=O)O)[C@H]1CC[C@H]2[C@@H]3CC[C@@H]4C[C@H](O)CC[C@]4(C)[C@H]3CC[C@]12C` [Taurolithocholic acid], at SOAT [2], the “Apparent K m” value is listed as 19.3 ± 6.8 µM and the V max came out at 617 ± 57 pmol/mg protein/min. Also, in the test on HDV, the “in vitro HDV infection” value was “inhibited in vitro HDV infection”.
